Laboratory results from PMC7083851, “Extended pharmacodynamic responses observed upon PROTAC-mediated degradation of RIPK2” (Communications Biology, 2020).
Values joined by “and” are separate entries in the source; they are usually repeats but may differ in a detail not shown here. Equal values may be shown once. Read-outs that look alike come from different tables or passages of the source.

Tests used:
[1] = Blood concentrations after subcutaneous dosing in rat PK/PD studies; type: in vivo
Procedure: Female CD rats (7–8 weeks old on arrival, Charles River Ltd.) were placed into groups using a randomization schedule based on body weight prior to the study start. All animals were acclimatized for a minimum of one week prior to the experiment commencing. […] PROTAC 4 was dissolved in saline with the pH adjusted to 5.0 with sodium hydroxide (1 M).

[2] = system: L18-MDP-stimulated TNFα release; assay: TNFα after ex vivo L18-MDP stimulation of blood from dosed rats; type: in vivo, rat; settings: for TNFa level after ex vivo L18-MDP stimulation vs pre-dose, individual rat: 20 mg/kg SC single dose, 7-day study
Procedure: (§1) Male CD or Wistar Han rats (7–9 weeks old, Charles River UK Ltd.) were randomly allocated to treatment groups upon arrival. Female CD rats (7–8 weeks old on arrival, Charles River Ltd.) were placed into groups using a randomization schedule based on body weight prior to the study start. All animals were acclimatized for a minimum of one week prior to the experiment commencing.
Subcutaneous PROTAC solution formulations were prepared on the day of dosing as outlined below and filtered through a 0.22 µm Millex PVDF filter (Millipore) prior to PROTAC administration. PROTAC 4 was dissolved in saline with the pH adjusted to 5.0 with sodium hydroxide (1 M).
(§2) Ex vivo stimulation of rat blood with L18-MDP for PD: PPD blood samples taken prior to PROTAC administration or at fixed timepoints post PROTAC administration through the course of the study, were treated ex vivo with 100 ng/mL L18-MDP (Invivogen) or vehicle (0.1% DMSO) and incubated for 4 h. Following centrifugation, plasma was collected for cytokines analysis as detailed in cytokines assay section. Additionally, RIPK2 levels were determined in PBMCs isolated from blood and where collected, in sampled colon tissue as described in the text.
Cytokine measurement assay: Cytokine levels were measured in rat plasma or rat PBMCs cell culture supernatants using rat V-Plex TNFα, in human plasma or human PBMCs cell culture supernatants with either TNFα tissue culture or 7-plex kit. Rat serum and tissues samples from the in vivo L18-MDP acute inflammation model were analyzed using the rat TNFα, Il-6 and IL-8 U-Plex kits. All kits provided by Meso Scale Discovery (MSD). Levels of cytokines spontaneously released from human colon biopsies cell culture supernatants were measured using Human IL-1 beta/IL-1F2 DuoSet ELISA (Bio-techne), Human IL-6 ELISA (Immunotools) and Human TNF-alpha DuoSet ELISA (Bio-techne). All samples were processed accordingly to the manufacturer’s instructions. The MSD plates were analyzed using the MSD sector imager 6000 plate reader and cytokines concentration (pg/ml) was obtained by using the MSD DISCOVERY WORKBENCH software version 4.0.12.1
(§3) Statistics and reproducibility: All data were represented as percentage of the control sample: DMSO treated cells for the in vitro assays and the pre-dose or vehicle sample for the in vivo experiments.

[3] = system: RIPK2; assay: In vivo RIPK2 degradation in rat (PBMCs isolated from blood, Western blot)
Procedure: as §1, with “Rat PK/PD studies: On arrival, all rats were housed in a plastic solid bottom cage in groups of 2–3 with access to food and water ad libitum and under a 12 h light–dark cycle. Male” for “Male”
Subcutaneous PROTAC solution formulations were prepared on the day of dosing as outlined below and filtered through a 0.22 µm Millex PVDF filter (Millipore) prior to PROTAC administration. PROTAC 4 was dissolved in saline with the pH adjusted to 5.0 with sodium hydroxide (1 M). […].
as §2
Blood was mixed with optiPREP (Sigma) and following centrifugation at 1300 × g the PBMCs layer was collected. For in vivo studies, RIPK2 levels were determined immediately via immunoblotting, whereas for in vitro studies PBMCs were treated as detailed in the in vitro treatment section.
as §3
For in vivo studies, RIPK2:tubulin ratios and cytokine levels from each individual experiment were analysed either using a One-way ANOVA with Dunnet’s post-test or a two way ANOVA using GraphPad Prism 5.0.4 to determine statistical significance with 95% confidence levels.

[4] = 20 mg/kg SC single dose, 7-day study, 8 h
[5] = 20 mg/kg SC single dose, 7-day study, 24 h
[6] = 20 mg/kg SC single dose, 7-day study, 72 h
[7] = 20 mg/kg SC single dose, 7-day study, 168 h
[8] = 20 mg/kg SC, 14-day study, 72 h
[9] = 20 mg/kg SC, 14-day study, 240 h

Compound: CN[C@@H](C)C(=O)N[C@H](C(=O)N1CCC[C@H]1c1nc(C(=O)c2ccc(F)cc2)cs1)C1CCN(C(=O)c2cnc(N3CCN(CCOc4cc5ncnc(Nc6n[nH]c(C)c6C)c5cc4S(=O)(=O)C(C)(C)C)CC3)nc2)CC1 [PROTAC 4]
- blood concentration, individual rat ([1]; 5 mg/kg SC, 14-day study, 0.25 h): 0.0792 µg/mL and 0.0808 µg/mL and 0.137 µg/mL
- PK, blood concentration, individual rat ([1]; 20 mg/kg SC single dose, 7-day study, 0.25 h): 142.1 ng/mL and 262.3 ng/mL and 219.2 ng/mL and 88.3 ng/mL and 114.7 ng/mL
- PK, blood concentration, individual rat ([1]; 20 mg/kg SC single dose, 7-day study, 0.5 h): 113.3 ng/mL and 220.7 ng/mL and 177.2 ng/mL and 88.4 ng/mL and 248.8 ng/mL
- PK, blood concentration, individual rat ([1]; 20 mg/kg SC single dose, 7-day study, 1 h): 131.0 ng/mL and 198.9 ng/mL and 114.6 ng/mL and 195.5 ng/mL
- PK, blood concentration, individual rat ([1]; 20 mg/kg SC single dose, 7-day study, 2 h): 110.9 ng/mL and 278.2 ng/mL and 204.9 ng/mL and 96.5 ng/mL and 292.6 ng/mL
- PK, blood concentration, individual rat ([1]; 20 mg/kg SC single dose, 7-day study, 4 h): 211.6 ng/mL and 307.5 ng/mL and 375.8 ng/mL and 186.8 ng/mL and 240.9 ng/mL
- PK, blood concentration, individual rat [1, 4]: 104.7 ng/mL and 227.5 ng/mL and 262.0 ng/mL and 193.4 ng/mL and 268.5 ng/mL
- PK, blood concentration, individual rat [1, 5]: 240.6 ng/mL and 261.7 ng/mL and 347.0 ng/mL and 497.6 ng/mL and 315.9 ng/mL and 347 ng/mL
- PK, blood concentration, individual rat [1, 6]: 253.7 ng/mL and 143.8 ng/mL and 111.7 ng/mL and 90.2 ng/mL and 121.5 ng/mL and 90.15 ng/mL
- PK, blood concentration, individual rat [1, 7]: 15.0 ng/mL and 7.4 ng/mL and 9.6 ng/mL and 9.4 ng/mL and 6.1 ng/mL and 15.02 ng/mL and 7.438 ng/mL and 9.644 ng/mL and 9.399 ng/mL and 6.103 ng/mL
- blood concentration, individual rat ([1]; 20 mg/kg SC, 14-day study, 0.25 h): 0.103 µg/mL and 0.111 µg/mL and 0.0923 µg/mL and 0.0106 µg/mL and 0.0394 µg/mL
- blood concentration, individual rat ([1]; 20 mg/kg SC, 14-day study, 0.5 h): 0.115 µg/mL and 0.14 µg/mL and 0.0825 µg/mL and 0.0999 µg/mL
- blood concentration, individual rat ([1]; 20 mg/kg SC, 14-day study, 1 h): 0.173 µg/mL and 0.0633 µg/mL and 0.0901 µg/mL and 0.113 µg/mL and 0.0459 µg/mL
- blood concentration, individual rat ([1]; 20 mg/kg SC, 14-day study, 2 h): 0.141 µg/mL and 0.113 µg/mL and 0.12 µg/mL and 0.223 µg/mL
- blood concentration, individual rat ([1]; 20 mg/kg SC, 14-day study, 4 h): 0.226 µg/mL and 0.313 µg/mL and 0.572 µg/mL and 0.294 µg/mL and 0.206 µg/mL
- blood concentration, individual rat ([1]; 20 mg/kg SC, 14-day study, 8 h): 0.159 µg/mL and 0.18 µg/mL and 0.329 µg/mL and 0.167 µg/mL and 0.2 µg/mL
- blood concentration, individual rat ([1]; 20 mg/kg SC, 14-day study, 24 h): 0.698 µg/mL and 0.518 µg/mL and 0.213 µg/mL and 0.503 µg/mL and 0.15 µg/mL
- blood concentration, individual rat [1, 8]: 0.0141 µg/mL and 0.0694 µg/mL and 0.03 µg/mL and 0.0334 µg/mL and 0.0576 µg/mL
- blood concentration, individual rat ([1]; 20 mg/kg SC, 14-day study, 168 h): 0.00347 µg/mL and 0.0105 µg/mL and 0.00232 µg/mL and 0.00382 µg/mL and 0.00488 µg/mL
- blood concentration, individual rat [1, 9]: 0.00111 µg/mL and 0.00209 µg/mL and 0.00134 µg/mL
- concentration at 7 days ([1]; rat, blood, sc, 20 mg/kg, rat, single 20 mg/kg SC, after 7 days, read-out: compound levels in blood at later time-points): < 0.01 µg/mL
- concentration at 1 h ([1]; rat, blood, subcutaneous, 20 mg/kg, 20 mg/kg SC single dose, 7-day study, 1 h, read-out: PK, blood concentration, individual rat): 0.132 µg/mL
- concentration at 0.5 h ([1]; rat, blood, subcutaneous, 20 mg/kg, 20 mg/kg SC, 14-day study, 0.5 h, read-out: blood concentration, individual rat): 0.126 µg/mL
- concentration at 2 h ([1]; rat, blood, subcutaneous, 20 mg/kg, 20 mg/kg SC, 14-day study, 2 h, read-out: blood concentration, individual rat): 0.124 µg/mL
- concentration at 240 h ([1]; rat, blood, subcutaneous, 20 mg/kg, 20 mg/kg SC, 14-day study, 240 h, read-out: blood concentration, individual rat): 0.00168 µg/mL
- concentration at […] ([1]; rat, blood, subcutaneous, 20 mg/kg, 20 mg/kg SC, 14-day study, […], read-out: blood concentration, individual rat): 0.00171 µg/mL
- concentration at 24 h ([1]; rat, whole blood, subcutaneous, 1 mg/kg, 1 mg/kg SC, 14-day study, 24 h, read-out: blood concentration, individual rat): 0.00714 µg/mL
- concentration at 72 h ([1]; rat, whole blood, subcutaneous, 1 mg/kg, 1 mg/kg SC, 14-day study, 72 h, read-out: blood concentration, individual rat): 0.00167 µg/mL
- concentration at 24 h ([1]; rat, whole blood, subcutaneous, 5 mg/kg, 5 mg/kg SC, 14-day study, 24 h, read-out: blood concentration, individual rat): 0.0292 µg/mL
- concentration at 168 h ([1]; rat, whole blood, subcutaneous, 5 mg/kg, 5 mg/kg SC, 14-day study, 168 h, read-out: blood concentration, individual rat): 0.00477 µg/mL
- concentration at 240 h ([1]; rat, whole blood, subcutaneous, 5 mg/kg, 5 mg/kg SC, 14-day study, 240 h, read-out: blood concentration, individual rat): 0.00113 µg/mL
- TNFa level after ex vivo L18-MDP stimulation vs pre-dose, individual rat ([2]; 8 h): 9.24% and 8.84% and 7.78% and 9.53% and 3.34%
- TNFa level after ex vivo L18-MDP stimulation vs pre-dose, individual rat ([2]; 24 h): 3.87% and 3.74% and 8.65% and 6.37% and 4.55%
- TNFa level after ex vivo L18-MDP stimulation vs pre-dose, individual rat ([2]; 72 h): 10.34% and 56.63% and 10.25% and 43.76% and 3.57%
- TNFa level after ex vivo L18-MDP stimulation vs pre-dose, individual rat ([2]; 168 h): 12.29% and 8.70% and 24.16% and 13.36% and 15.12%
- TNFα inhibition following ex vivo L18-MDP stimulation in rat blood ([2]; single 20 mg/kg SC, throughout the 7-day study): > 70%
- RIPK2 level vs pre-dose, individual rat ([3]; 1 mg/kg SC, 14-day study, 8 h): 71.55% and 45.26% and 58.63% and 60.59% and 55.33%
- RIPK2 level vs pre-dose, individual rat ([3]; 1 mg/kg SC, 14-day study, 72 h): 64.81% and 59.31% and 60.99% and 66.83% and 64.49%
- RIPK2 level vs pre-dose, individual rat ([3]; 1 mg/kg SC, 14-day study, 240 h): 112.79% and 70.63% and 104.75% and 126.83% and 102.52%
- RIPK2 level vs pre-dose, individual rat ([3]; 5 mg/kg SC, 14-day study, 8 h): 41.85% and 45.44% and 41.77% and 41.32% and 53.21%
- RIPK2 level vs pre-dose, individual rat ([3]; 5 mg/kg SC, 14-day study, 72 h): 34.61% and 30.18% and 38.68% and 37.78% and 36.11%
- RIPK2 level vs pre-dose, individual rat ([3]; 5 mg/kg SC, 14-day study, 240 h): 87.11% and 99.39% and 92.18% and 103.23% and 99.62%
- RIPK2 level vs pre-dose, individual rat [3, 4]: 28.87% and 26.27% and 38.47% and 28.32% and 30.61%
- RIPK2 level vs pre-dose, individual rat [3, 5]: 18.69% and 14.21% and 28.44% and 16.94% and 23.48%
- RIPK2 level vs pre-dose, individual rat [3, 6]: 6.86% and 4.61% and 6.88% and 8.62% and 8.55%
- RIPK2 level vs pre-dose, individual rat [3, 7]: 12.52% and 6.26% and 20.35% and 12.51% and 16.81%
- RIPK2 level vs pre-dose, individual rat ([3]; 20 mg/kg SC, 14-day study, 8 h): 37.50% and 45.03% and 47.72% and 58.85% and 77.11%
- RIPK2 level vs pre-dose, individual rat [3, 8]: 13.52% and 12.63% and 25.66% and 9.20% and 12.50%
- RIPK2 level vs pre-dose, individual rat [3, 9]: 60.06% and 118.48% and 58.34% and 98.90% and 86.42%
- RIPK2 degradation ([3]; rat, 14-day study, all dose levels (1, 5, 20 mg/kg SC), 8 h): 40–60%
- RIPK2 protein levels, in words ([3]; rat, 14-day study, each dose group, 240 h): returned to baseline levels
- RIPK2 degradation ([3]; rat, single 20 mg/kg SC, 72 h): > 80%
- RIPK2 degradation ([3]; rat, single 20 mg/kg SC, 168 h): > 80%
